One test relates to HCoV-OC43 M^pro. As to conditions: read-out: IC50 HCoV-OC43, cited from earlier work.
Another test deals with HCoV-NL63 M^pro. As to conditions: read-out: IC50 HCoV-NL63, cited from earlier work.
The subject of the next test is HCoV-HKU1 M^pro. The settings on record: read-out: IC50 HCoV-HKU1; cited from earlier work.
In the next test the test system is M^pro of four alpha-CoVs. As to conditions: read-out: IC50 values against all four alpha-CoVs.
The test system of test [1] is M^pro of ten high-risk CoVs.

Read-outs that look alike come from different tables or passages of the source. Some results are limits rather than exact numbers.

A word on the IC50: it is the concentration that gives 50% inhibition. Turning to `Cn1cnc(Cn2c(=O)[nH]/c(=N\c3cc4cn(C)nc4cc3Cl)n(Cc3cc(F)c(F)cc3F)c2=O)n1` [S-217622 (1)], the values for the IC50 in the test on HCoV-OC43 M^pro (reported compound), with HCoV-NL63 M^pro (reported compound) and with HCoV-HKU1 M^pro were […], […] and […], respectively.

In the case of `Cc1cncc(-n2c(=O)[nH]/c(=N\c3cc4cn(C)nc4cc3Cl)n(Cc3cc(C#N)ccc3Sc3ccc(Cl)s3)c2=O)c1` [Compound 24, (E)-3-((6-((6-Chloro-2-methyl-2H-indazol-5-yl)imino)-3-(5-methylpyridin-3-yl)-2,4-dioxo-1,3,5-triazinan-1-yl)methyl)-4-((5-chlorothiophen-2-yl)thio)benzonitrile], in the test with M^pro of four alpha-CoVs, the IC50 is under 300 nM.

On to `CC(C)(C)[C@H](NC(=O)C(F)(F)F)C(=O)N1C[C@H]2[C@@H]([C@H]1C(=O)N[C@H](C#N)C[C@@H]1CCNC1=O)C2(C)C` [PF-07321332, Nirmatrelvir], for which the results for the IC50 in the test on HCoV-OC43 M^pro, with HCoV-NL63 M^pro and with HCoV-HKU1 M^pro were […], […] and […], respectively.

For `Cn1cc2cc(/N=c3\[nH]c(=O)n(Cc4ccc[nH]c4=O)c(=O)n3Cc3cc(Cl)c(F)cc3Oc3ccc(C#N)s3)c(Cl)cc2n1` [Compound 25, (E)-5-(4-chloro-2-((6-((6-chloro-2-methyl-2H-indazol-5-yl)imino)-2,4-dioxo-3-((2-oxo-1,2-dihydropyridin-3-yl)methyl)-1,3,5-triazinan-1-yl)methyl)-5-fluoro-phenoxy)thiophene-2-carbonitrile], the IC50 is under 600 nM in the test with M^pro of four alpha-CoVs, under 600 nM in test [1] (read-out: IC50 against ten high-risk CoVs) and under 100 nM in test [1] (read-out: IC50 values for six of the ten CoVs).

With `Cn1cnc(Cn2c(=O)[nH]/c(=N\c3cc4cn(C)nc4cc3Cl)n(Cc3cc(Cl)c(F)cc3Oc3ncc(C(F)(F)F)s3)c2=O)n1` [Compound 14, (E)-6-((6-chloro-2-methyl-2H-indazol-5-yl)imino)-1-(5-chloro-4-fluoro-2-((5-(trifluoromethyl)thiazol-2-yl)oxy)benzyl)-3-((1-methyl-1H-1,2,4-triazol-3-yl)methyl)-1,3,5-triazinane-2,4-dione], the IC50 with M^pro of four alpha-CoVs is under 300 nM.

Values taken from article PMC12096674 (Journal of Enzyme Inhibition and Medicinal Chemistry, 2025).
